Data reported in PMC8691750, “Euphorbia Factor L2 ameliorates the Progression of K/BxN Serum-Induced Arthritis by Blocking TLR7 Mediated IRAK4/IKKβ/IRF5 and NF-kB Signaling Pathways” (Frontiers in Pharmacology, 2021).
Several values for one entry are separate records, joined by “and”; a condition that tells them apart may be missing. Equal values may be shown once.

Tested on: TLR signalling pathway genes
Assay: Toll-like Receptor Pathway PCR array of ankles
Type: in vivo, C57BL/6 mice
Conditions: for S40/SIA (fold change) / log2(fold change) S40/SIA: S40 group vs SIA group
Experimental: Total RNA was isolated from the right ankles using the TRIzol Reagent (Invitrogen) and purified with RNeasy Mini Kit and RNase-Free DNase Set (Qiagen). RNA quality was determined using a spectrophotometer and was reversely transcribed using Wcgene® mRNA cDNA kit. The complementary DNA was used on the Toll-like Receptor Pathway PCR Array plate (Wcgene® biotech, China).

[1] = ankles of STA mice, single-animal samples S401-S405
[2] = ankles of STA mice, single-animal samples S401-S405, relative to GAPDH
[3] = ankles, STA mice + EFL2 i.p., individual mice EFL2-1 to EFL2-4
[4] = ankles, EFL2 40 mg/kg i.p. treated STA mice versus STA mice

C=C1C(OC(=O)c2ccccc2)CC2C(C=C(C)C(=O)C3(OC(C)=O)CC(C)C(OC(=O)c4ccccc4)C3C1OC(C)=O)C2(C)C (centres unmarked) [EFL2, Euphorbia factor L2]
S40/SIA (fold change) (Tlr8 mRNA): 0.1573 | log2(fold change) S40/SIA (Tlr8 mRNA): -2.668 | S40/SIA (fold change) (Tlr9 mRNA): 0.05745 | log2(fold change) S40/SIA (Tlr9 mRNA): -4.122 | S40/SIA (fold change) (Tnf mRNA): 0.271 | log2(fold change) S40/SIA (Tnf mRNA): -1.884 | S40/SIA (fold change) (Tnfaip3 mRNA): 0.2367 | log2(fold change) S40/SIA (Tnfaip3 mRNA): -2.079 | S40/SIA (fold change) (Tollip mRNA): 0.6335 | log2(fold change) S40/SIA (Tollip mRNA): -0.6586 | S40/SIA (fold change) (Traf6 mRNA): 0.511 | log2(fold change) S40/SIA (Traf6 mRNA): -0.9687 | S40/SIA (fold change) (Ube2v1 mRNA): 0.4284 | log2(fold change) S40/SIA (Ube2v1 mRNA): -1.223 | Rel Cт [1]: 30.17 and 31.86 and 31.19 | Rela Cт [1]: 27.60 and 28.97 and 29.92 | Ripk2 Cт [1]: 31.20 and 31.97 and 31.38 | Tbk1 Cт [1]: 35.01 and 33.84 and 30.91 | Tbp Cт [1]: 32.79 and 35.04 and 35.08 and 35.26 | Ticam1 Cт [1]: 30.63 and 31.57 and 31.92 and 31.40 | Ticam2 Cт [1]: 31.98 and 32.33 and 32.54 and 32.28 | Tirap Cт [1]: 31.54 and 33.23 and 32.87 | Tlr1 Cт [1]: 31.47 and 31.48 and 31.36 and 33.05 | Tlr2 Cт [1]: 29.79 and 30.45 and 30.70 | Tlr3 Cт [1]: 31.62 and 33.01 and 32.92 and 28.89 | Tlr4 Cт [1]: 29.41 and 30.97 and 30.43 and 30.84 | Tlr5 Cт [1]: 33.11 and 33.16 and 33.55 and 34.74 | Tlr6 Cт [1]: 32.61 and 34.42 and 28.05 | Tlr7 Cт [1]: 33.17 and 34.60 and 34.75 | Tlr8 Cт [1]: 31.72 and 32.87 | Tlr9 Cт [1]: 33.32 and 37.49 | Tnf Cт [1]: 33.75 and 35.02 and 34.91 | Tnfaip3 Cт [1]: 31.00 and 33.42 and 32.49 and 32.20 | Tnfrsf1a Cт [1]: 27.55 and 28.63 and 28.76 | Tollip Cт [1]: 29.42 and 30.42 and 30.55 | Tradd Cт [1]: 31.88 and 32.32 and 32.17 and 32.45 | Traf6 Cт [1]: 30.31 and 30.69 and 31.10 and 30.54 | Ube2n Cт [1]: 27.18 and 28.39 and 28.43 and 28.55 | Ube2v1 Cт [1]: 26.90 and 29.51 and 28.01 and 27.92 | Rel fold-GAPDH [2]: 0.005407 and 0.004928 and 0.005486 | Ripk2 fold-GAPDH [2]: 0.002639 and 0.004565 and 0.002897 | Tlr2 fold-GAPDH [2]: 0.007046 and 0.01307 and 0.007729 | Tlr8 fold-GAPDH [2]: 0.001839 and 0.001034 | Tnf fold-GAPDH [2]: 0.0004529 and 0.0005528 and 0.0004186 | Tnfaip3 fold-GAPDH [2]: 0.003028 and 0.001676 and 0.002239 and 0.001643 | Tollip fold-GAPDH [2]: 0.009094 and 0.01333 and 0.008592 | Becn1 relative expression to GAPDH [3]: 0.001891 and 0.007192 and 0.004096 | Btk relative expression to GAPDH [3]: 0.001831 and 0.004678 and 0.001063 and 0.002403 | Casp8 relative expression to GAPDH [3]: 0.01358 and 0.009475 and 0.01634 | Ccl2 relative expression to GAPDH [3]: 0.00629 and 0.0002036 and 0.01529 | Ccl11 relative expression to GAPDH [3]: 0.008836 and 0.01327 and 0.005579 and 0.01036 | Cd86 relative expression to GAPDH [3]: 0.0005777 and 0.0007714 and 0.0003428 and 0.0007215 | Chuk relative expression to GAPDH [3]: 0.01087 and 0.008829 and 0.008767 | Clec4e relative expression to GAPDH [3]: 0.002249 and 0.0004993 and 4.1493e-5 and 0.0002637 | Cxcl10 relative expression to GAPDH [3]: 2.1064e-5 | Elk1 relative expression to GAPDH [3]: 0.005652 and 0.006734 and 0.002589 and 0.006009 | Fadd relative expression to GAPDH [3]: 0.0009207 and 0.00158 and 0.0009332 and 0.001977 | Hras1 relative expression to GAPDH [3]: 0.02746 and 0.02268 and 0.01475 and 0.02419 | Hspd1 relative expression to GAPDH [3]: 0.02518 and 0.003019 and 0.01313 and 0.02796 | IRF5 relative expression to GAPDH [3]: 0.004692 and 0.004033 and 0.001353 and 0.004631 | Il1b relative expression to GAPDH [3]: 0.0009616 and 0.0008 and 0.0006699 and 0.005996 | Il6 relative expression to GAPDH [3]: 0.0008677 and 0.0003997 and 0.0006556 and 0.002971 | Il10 relative expression to GAPDH [3]: 0.0002257 and 7.048e-5 and 9.932e-5 and 0.0001425 | Ilr1 relative expression to GAPDH [3]: 0.01561 and 0.01023 and 0.00774 and 0.01383 | Irak2 relative expression to GAPDH [3]: 0.004831 and 0.004355 and 0.002516 and 0.003024 | Irak3 relative expression to GAPDH [3]: 0.02176 and 0.01462 and 0.00868 and 0.01639 | Irf1 relative expression to GAPDH [3]: 0.008232 and 0.006938 | Irf3 relative expression to GAPDH [3]: 0.01143 and 0.004857 and 0.01116 | Jun relative expression to GAPDH [3]: 0.0443 and 0.03642 and 0.03036 and 0.04078 | Ly96 relative expression to GAPDH [3]: 0.008818 and 0.008037 and 0.003545 and 0.00648 | Map2k4 relative expression to GAPDH [3]: 0.009032 and 0.01171 and 0.005161 and 0.006054 | Myd88 relative expression to GAPDH [3]: 0.0089 and 0.006533 and 0.004478 and 0.009066 | Nfkb2 relative expression to GAPDH [3]: 0.008129 and 0.004372 and 0.004079 and 0.005983 | Nfkbia relative expression to GAPDH [3]: 0.03111 and 0.02056 and 0.01675 and 0.03064 | Nfkbib relative expression to GAPDH [3]: 0.005737 and 0.004539 and 0.002397 and 0.00388 | Nr2c2 relative expression to GAPDH [3]: 0.009954 and 0.006912 and 0.004742 and 0.008167 | Peli1 relative expression to GAPDH [3]: 0.02035 and 0.01296 and 0.0006428 and 0.01623 | Pglyrp1 relative expression to GAPDH [3]: 0.0004159 and 0.002383 and 0.001422 | Ptgs2 relative expression to GAPDH [3]: 0.000397 and 0.0002674 and 0.0003018 and 0.001434 | Rel relative expression to GAPDH [3]: 0.004928 and 0.005486 and 0.005407 | Ticam1 relative expression to GAPDH [3]: 0.006005 and 0.003329 and 0.002855 and 0.003921 | Tlr2 relative expression to GAPDH [3]: 0.01307 and 0.007729 and 0.007046 | Tlr3 relative expression to GAPDH [3]: 0.002217 and 0.00166 and 0.01628 and 0.001979 | Tlr4 relative expression to GAPDH [3]: 0.00914 and 0.009306 and 0.004225 and 0.009146 | Tlr5 relative expression to GAPDH [3]: 0.001998 and 0.001071 and 0.0002832 and 0.0007049 | Tlr7 relative expression to GAPDH [3]: 0.0007393 and 0.00028 and 0.0006762 | Tlr8 relative expression to GAPDH [3]: 0.001034 and 0.001839 | Tlr9 relative expression to GAPDH [3]: 9.931e-5 and 0.0006069 | Tnf relative expression to GAPDH [3]: 0.0005528 and 0.0004186 and 0.0004529 | Tnfaip3 relative expression to GAPDH [3]: 0.001676 and 0.002239 and 0.001643 and 0.003028 | Tollip relative expression to GAPDH [3]: 0.01333 and 0.008592 and 0.009094 | Traf6 relative expression to GAPDH [3]: 0.01108 and 0.005865 and 0.005186 and 0.004909 | Ube2v1 relative expression to GAPDH [3]: 0.02505 and 0.04987 and 0.0319 and 0.05212 | Becn1 fold change S40/SIA [4]: 0.2727 | Btk fold change S40/SIA [4]: 0.3155 | Casp8 fold change S40/SIA [4]: 0.2393 | Ccl2 fold change S40/SIA [4]: 0.0326 | Ccl11 fold change S40/SIA [4]: 1.864 | Cd86 fold change S40/SIA [4]: 0.1925 | Chuk fold change S40/SIA [4]: 0.3313 | Clec4e fold change S40/SIA [4]: 0.0859 | Cxcl10 fold change S40/SIA [4]: 0.002337 | Elk1 fold change S40/SIA [4]: 0.3565 | Fadd fold change S40/SIA [4]: 0.1995 | Hras1 fold change S40/SIA [4]: 0.4915 | Hspd1 fold change S40/SIA [4]: 0.2339 | IRF5 fold change S40/SIA [4]: 0.3677 | Il1b fold change S40/SIA [4]: 0.0229 | Il6 fold change S40/SIA [4]: 0.03478 | Il10 fold change S40/SIA [4]: 0.2443 | Ilr1 fold change S40/SIA [4]: 0.09556 | Irak2 fold change S40/SIA [4]: 0.4814 | Irak3 fold change S40/SIA [4]: 0.4891 | Irf1 fold change S40/SIA [4]: 0.3319 | Irf3 fold change S40/SIA [4]: 0.3241 | Jun fold change S40/SIA [4]: 0.3678 | Ly96 fold change S40/SIA [4]: 0.3878 | Map2k4 fold change S40/SIA [4]: 0.8651 | Myd88 fold change S40/SIA [4]: 0.1447 | Nfkb2 fold change S40/SIA [4]: 0.2395 | Nfkbia fold change S40/SIA [4]: 0.2445 | Nfkbib fold change S40/SIA [4]: 0.4073 | Nr2c2 fold change S40/SIA [4]: 0.5521 | Peli1 fold change S40/SIA [4]: 0.462 | Pglyrp1 fold change S40/SIA [4]: 0.2161 | Ptgs2 fold change S40/SIA [4]: 0.03786 | Rel fold change S40/SIA [4]: 0.2762 | Ticam1 fold change S40/SIA [4]: 0.59 | Tlr2 fold change S40/SIA [4]: 0.1682 | Tlr3 fold change S40/SIA [4]: 0.7859 | Tlr4 fold change S40/SIA [4]: 0.5705 | Tlr5 fold change S40/SIA [4]: 0.188 | Tlr7 fold change S40/SIA [4]: 0.09461 | Tlr8 fold change S40/SIA [4]: 0.1573 | Tlr9 fold change S40/SIA [4]: 0.05745 | Tnf fold change S40/SIA [4]: 0.271 | Tnfaip3 fold change S40/SIA [4]: 0.2367 | Tollip fold change S40/SIA [4]: 0.6335 | Traf6 fold change S40/SIA [4]: 0.511 | Ube2v1 fold change S40/SIA [4]: 0.4284
